Measured values: patent US6784155B1, “Inhibitor and stimulator of stem cell proliferation and uses thereof” (Wellstat Therapeutics Corporation, priority 1996, dated 2004)
No end group written: not given here. *: point of attachment. Biotin = O=C1N[C@H]2[C@H](CS[C@H]2CCCCC(=O)*)N1; C4 linker = not defined here

Tests used:
[1] = tested on: CFU-MIX; assay: CFU-MIX cycling assay in vitro (Ara C kill); type: cell-based, mouse
Procedure: A similar assay can be performed in vitro, using the cycling status of CFU-MIX instead of CFU-S. The assay is performed as described above for the CFU-S assay except that cytosine arabinoside (Ara C, 30 micrograms/ml) is used as the cycle-specific toxic agent instead of high dose tritiated thymidine (see B. I. Lord in Haemopoiesis—A Practical Approach, N. G. Testa and G. Molineux (Eds.), IRL Press 1993; Pragnell et al. in Culture of Hematopoietic Cells, R. I. Freshney, I. B. Pragnell and M. G. Freshney (Eds.), Wiley Liss 1994) and a mouse strain with high endogenous cycling rates (Balb/c) is used instead of testosterone-treated BDFI mice.
(§1) 24 hours later (Day 1), varying doses of peptide 43-55 or vehicle were injected i.v. Bone marrow was harvested on Day 2 and the […] cycling assay conducted as in Example 14. Specifically, mice were sacrificed and single cell bone marrow suspensions prepared from the femurs. The cells were washed once and the concentration adjusted to 5×10^6 cells/ml in Fischer medium. For each test condition, one milliliter of cells was added to each of two polypropylene tubes. The tubes were incubated at 37° C. for 3 hours without (“Control”) or with (“Experimental”) the appropriate concentration of test substance. At the end of the incubation, 30 μg/ml of cytosine arabinoside (“Ara C” (Sigma)) was added to half of the tubes and the same volume of Fischer's medium was added to the others. The tubes were incubated for a further 1 hour at 37° C., after which they were placed on ice and washed twice with cold Fischer medium.
(§2) The cells were readjusted to 5×10^4-10^6/ml in Fischer's medium and 0.5 ml of cell suspension added to 5 ml of Methocult M3430 methylcellulose medium (Stem Cell Technologies, Vancouver, British Columbia). The mixture was vigorously mixed with a vortex and 1 ml was dispensed into each of five 35 mm dishes. The 35 mm dishes were in turn placed in a covered 150 mm dish with one open 35 mm dish containing sterile water. CFU-MIX colonies were counted with the use of an inverted microscope after 7 days of incubation at 37° C.
Differences in colony number between the tubes treated with medium versus the tubes treated with Ara C represent the percentage of cells in cycle under that condition according to the formula:
a=Number of CFU-MIX from tube incubated with medium alone
b=Number of CFU-MIX from tube incubated with Ara C

[2] = tested on: CFU-MIX; assay: Stimulation of cycling of quiescent murine stem cells, CFU-MIX cycling assay in vitro; type: cell-based, mouse
Procedure: Microgram per milliliter doses of hemoglobin chains, myoglobin and peptides were assayed for stimulation of quiescent stem cells. Bone marrow was obtained from untreated B6D2F1 tested in the CFU-MIX cycling assay as in Example 24. Stem cells isolated from untreated B6D2F1 mice are normally slowly cycling unless stimulated (e.g. by testosterone propionate (cf. Example 1) or chemotherapy such as 5FU (cf. Example 4)) to enter into cycle.

[3] = tested on: CFU-MIX; assay: CFU-MIX cycling assay after in vivo injection into testosterone or 5FU treated mice; parameters: species or system mouse
Procedure: In order to test the ability of purified porcine hemoglobin chains to act in vivo, BDF1 mice were injected with testosterone propionate as described in Example 1. Twenty four hours later, mice received 500 ng of either pINPROL, porcine hemoglobin alpha chain (purified from peripheral red blood cells as in FIG. 21), porcine beta chain (purified from peripheral red blood cells as in FIG. 21) or the equivalent volume of carrier intravenously. Forty eight hours later the bone marrow from each mouse was harvested and the CFU-MIX assay conducted as described in Example 14.
To assess the stem cell inhibitory activity of peptide 43-55 in vivo, B6D2 F1 mice were pre-treated with testosterone propionate as described in Example 1 or with 5FU. Specifically, testosterone propionate (100 mg/kg body weight) was injected i.p. on Day 0 into mice. Alternatively, mice were injected on Day 0 with 5FU ([…] body weight).
as §1, §2
Differences in colony number between the tubes treated with medium versus the tubes treated with Ara C represent the percentage of cells in cycle under that condition according to the formula: […]

[4] = tested on: CFU-GEMM; assay: CFU-GEMM cycling assay, human umbilical cord blood cells; type: cell-based; conditions: Table 32, cord blood mononuclear cells
Procedure: In order to investigate the ability of purified INPROL from porcine bone marrow to affect cycling on human progenitors, umbilical cord blood cells were obtained. Either the total mononuclear cell fraction obtained after separation on Ficoll or the CD34^+ fraction obtained after fractionation on anti-CD34 affinity columns (CellPro Inc.) was used. Cells were incubated for 48 hours in vitro in the presence of interleukin 3 (IL-3) and stem cell factor (SCF) (100 ng/ml each) in order to ensure that the early stem cells were in cycle. After this preincubation, cycling assays were conducted as described in Example 14 for the mouse except that CFU-GEMM (instead of CFU-MIX) were counted on Day 18 after plating.
The human cord blood CFU-GEMM cycling assay was conducted as in Example 19. Specifically, mononuclear cells were isolated from human umbilical cord blood cells and adjusted to 24×10^4 cells/ml in IMDM tissue culture medium supplemented with 10% FBS, 100 ng/ml kit ligand and 100 ng/ml human IL-3. The cells were incubated for 48 hours at 37° C.
After incubation, cells were washed and resuspended in serun-free NDM at a concentration of 10^6 cells/ml. One ml of cells was added to each of two polypropylene tubes per condition and the cycling assay conducted as in Example 24 for mouse bone marrow. After the Ara C incubation cells were washed with cold NDM and adjusted to 10,000 to 20,000 cells per 0.5 ml IMDM and mixed with 5 ml Methocult H4433 (Stem Cell Technologies). Alternatively, Methocult H4435 methylcellulose medium (Stem Cell Technologies) was used in which case the cell concentration was adjusted to 2500-5000 cells per 0.5 ml IMDM. The cells were plated as in Example 24 and CFU-GEMM colonies scored on days 14-18.

[5] = tested on: CFU-GEMM; assay: CFU-GEMM cycling assay, mobilized human peripheral blood; type: cell-based
Procedure: Peripheral blood was obtained from breast cancer patients undergoing peripheral stem cell mobilization with cyclophosphamide and G-CSF according to standard protocols. Red blood cells were removed with FicolU Hypaque (cells were diluted 1:1 with IMDM and 20 ml layered on top of 16 ml Ficoll and centrifuged at 800 g for 30 minutes; mononuclear cells were removed from the interphase and washed twice in IMDM). In one case mononuclear cells were stored frozen in liquid nitrogen before assay. The mononuclear cells were plated for the CFU-GEMM cycling assay as in Example 26 except that 2.5-5×10^5 cells were plated per dish.

[6] = Table 13, bone marrow from Balb/c mice, 100 ng/ml
[7] = Table 26, Balb/c bone marrow, 10^−5M
[8] = Table 26, Balb/c bone marrow, 10^−7M
[9] = Table 26, Balb/c bone marrow, 10^−9M
[10] = Table 39, untreated B6D2F1 bone marrow, 10^−3M
[11] = Table 39, untreated B6D2F1 bone marrow, 10^−5M
[12] = Table 9, bone marrow from Balb/c mice, 100 ng/ml
[13] = Table 10, testosterone-treated BDF1 mice, 500 ng intravenously (footnote: 100 ng/ml), marrow 48 hours later
[14] = Table 38, untreated B6D2F1 bone marrow, concentration printed only as (μg/ml)

Biotinylated beta chain: human hemoglobin beta chain from hemoglobin treated with NHS LC Biotin
% Kill [1, 6]: 25%

(D-Arg^2, Lys^4)-Dermorphin-(1-4)-amide [DALDA, reference compound]
% Kill [1, 7]: 47%
% Kill [1, 8]: 0%
% Kill [1, 9]: 34%
% Kill [2, 10]: 41%
% Kill [2, 11]: 24%

Biotinylated peptide 43-55: Peptide 43-55 with biotin linked via a C4 carbon linker to the N-terminal NH2 of Phe43 ({Biotin-C4 linker}-FPHFDLSHGSAQV; reading uncertain; UniProt P69905 44-56, looked up, fragment)
% Kill ([1]; Table 24, 1 ng/ml): 15%

Human hemoglobin: human hemoglobin
% Kill ([3]; Table 14, testosterone-treated BDF1 mice, 500 ng/mouse): −31%

Porcine alpha chain: porcine hemoglobin alpha chain purified from peripheral red blood cells as in FIG. 21
% Kill [1, 12]: −4%
% Kill [3, 13]: 5%

DALTNAVAHVDDMPNALSA [Peptide 64-82, amino acids 64-82 of human alpha hemoglobin]
% Kill ([1]; Table 18, 100 ng/ml): 9%
% Kill ([4]; 1 ng/ml): 21%
% Kill ([4]; 10 ng): 20%
% Kill ([4]; 100 ng/ml): 39%
% Kill ([2]; Table 42, untreated B6D2F1 bone marrow, 1 μg/ml): 25%

CN1CC[C@]23c4c5ccc(O)c4O[C@H]2[C@@H](O)C=C[C@H]3[C@H]1C5 [Morphine, morphine, reference compound]
% Kill ([1]; Table 25, Balb/c bone marrow, 10^−7M): 10%
% Kill ([1]; Table 25, Balb/c bone marrow, 10^−9M): 15%
% Kill ([1]; Table 25, Balb/c bone marrow, 10^−11M): 32%
% Kill ([5]; Table 35, Patient #2, 10^−7M): 24%
% Kill ([5]; Table 35, Patient #2, 10^−9M): 0%

1-94 fragment: purified formic-acid cleaved fragment, amino acids 1-94 of human alpha hemoglobin chain
% Kill ([1]; Table 20, Balb/c bone marrow, 100 ng/ml): 0%

Leu-Val-Val-Tyr-Pro-Trp-Thr-Gln-Arg-Phe (LVVYPWTQRF; printed: Leu-Val-Val-Tyr-Pro-Trp-Thr-Gln-Arg-Phe) [Hemorphin 10, reference compound]
% Kill ([1]; Table 18, 100 ng/ml): 1%
% Kill ([1]; Table 28, 100 ng/ml, alone): 0%

Human beta chain: purified human hemoglobin beta chain
% Kill ([1]; Table 11, bone marrow from Balb/c mice, 100 ng/ml): 41%
% Kill [1, 6]: 55%
% Kill [2, 14]: 55%

CC(C)C[C@@H](NC(=O)[C@H](Cc1ccccc1)NC(=O)CNC(=O)[C@@H](C)NC(=O)[C@@H](N)Cc1ccc(O)cc1)C(=O)O [DADLE, reference compound]
% Kill [2, 10]: 0%
% Kill [2, 11]: 0%

Porcine beta chain: porcine hemoglobin beta chain purified from peripheral red blood cells as in FIG. 21
% Kill [1, 12]: −14%
% Kill [3, 13]: −5%

H-D-Phe-Cys-Tyr-D-Trp-Orn-Thr-Pen-Thr-NH2 [CTOP, reference compound]
effect of CTOP itself on the assay ([1]; 10^−7 M): no effect
% Kill ([1]; Table 31, CTOP alone, 10^−7M final concentration): 36%

VVYPWTQR [Hemorphin 7, reference compound]
% Kill ([1]; Table 18, 100 ng/ml): 0%

C=CCN1CC[C@]23c4c5ccc(O)c4O[C@H]2C(=O)CC[C@@]3(O)[C@H]1C5 [Naloxone, naloxone, reference compound]
effect of naloxone itself on the assay ([1]; 10^−5-10^−7M): no effect
% Kill ([1]; Table 28, naloxone alone, 10^−5M final concentration): 36%
% Kill ([1]; Table 30, 10^−10M): 0%

Biotinylated alpha chain: human hemoglobin alpha chain from hemoglobin treated with NHS LC Biotin
% Kill [1, 6]: 7%

C[C@@H](NC(=O)[C@@H](N)Cc1ccc(O)cc1)C(=O)NCC(=O)N(C)[C@@H](Cc1ccccc1)C(=O)NCCO [DAMGO, (D-Ala^2,N-Me-Phe^4,Gly-ol^5)-Enkephalin, reference compound]
% Kill [1, 7]: 15%
% Kill [1, 8]: 0%
% Kill [1, 9]: 38%
% Kill ([5]; Table 35, Patient #2, 10^−7M): 15%
% Kill ([5]; Table 35, Patient #2, 10^−9M): 0%

Human delta chain: purified human hemoglobin delta chain
% Kill ([1]; Table 12, bone marrow from Balb/c mice, 100 ng/ml): −4%
% Kill ([1]; Table 29, 100 ng/ml, alone): 10%

B1: Human Myoglobin: human myoglobin (protein, UniProt P02144 2-154, looked up)
Myoglobin: GLSDGEWQLVLNVWGKVEADIPGHGQEVLIRLFKGHPETLEKFDKFKHLKSEDEMKASEDLKKHGATVLTALGGILKKKGHHEAEIKPLAQSHATKHKIPVKYLEFISECIIQVLQSKHPGDFGADAQGAMNKALELFRKDMASNYKELGFQG
stem cell inhibitory activity, in words ([1]; CFU-MIX cycling assay): inactive
% Kill [2, 14]: 30%
